Results published in patent US9340559B2, “Proteasome inhibitor delanzomib for use in the treatment of lupus” (Cephalon, Inc., priority 2011, dated 2016).

What was measured:
NZM mice [1] = experiment: Antibody secreting cell Elispot (anti-Smith, anti-dsDNA ASC), spleens of NZM mice (Example 3); format: in vivo, mouse
Experimental: (§1) FIG. 49 depicts the frequency of anti-Smith antibody secreting cells in the spleens of NZM mice. NZM treated mice spleens were processed for splenocytes for ex vivo Elispot assays. Elispot wells were coated with 10 μg/mL of purified smith antigen or ovalbumin protein as a third party background control antigen. Fresh, whole splenocytes were added to each well at 500,000 cells per well in cell culture medium. Cells were incubated overnight at 37° C. Developed wells provided spots that were counted as frequency of ASCs per million splenocytes.
as §1, with “50” for “49”, “anti-dsDNA” for “anti-Smith”, “bovine dsDNA” for “purified smith antigen”
B-cell Elispot components are ordered from MabTech (Nacka Strand, Sweden) and nitrocellulose IP filter plates are ordered from Millipore (Billerica, Mass.). Elispot wells are coated with either purified bovine thymus dsDNA (Sigma), purified bovine Smith antigen (GenWay) or boiled filtered purified chicken chromatin from lysed chicken red blood cells (Rockland, Gilbertsville, Pa.) at 10 μg/mL. Spleens are processed using glass homogenization (frosted slides). Dispersed cell contents are washed in sterile HBSS and RBCs lysed using 1×RBC lysis buffer (BioLegend, Cat #420301). Processed splenocytes are added to each well and are not stimulated with lipopolysaccharide (LPS) to avoid skewing of true ex vivo frequencies of antibody-secreting cell types (ASCs). Anti-mouse pan-IgG is used as a positive control for total IgG producing ASCs and is used to normalize results. Frequencies for each antigen are identified in an initial test phase for each model. For chromatin and total IgG only, 30,000 splenocytes are added to each well; for Smith antigen and dsDNA, 500,000 cells are added to each well. Different numbers of splenocytes are added for different antigens due to saturation limits of spot frequencies per well. B-cell Elispots are incubated overnight at 37° C. To develop each assay, secondary antibody is added to each well, incubated, washed and alkaline phosphatase strepavidin (Jackson ImmunoResearch, West Grove, Pa.) is used as the conjugate; substrate used is BCIP-NBT (MabTech, Cincinnati, Ohio). Plates are developed until spots are visible. All Elispot analyses are performed using an Immunospot C.T.L. scanner and Biospot software (Cellular Technology Ltd., Shaker Heights, Ohio). Results are shown as values from which media and cells only wells are subtracted. Some values are negative due to high background.

20S proteasome = 20S proteasome activity in spleen (ex vivo fluorogenic assay), NZM mice (Example 2)
NZM mice [2] = experiment: Spleen CD38/CD138+ plasma cells by flow cytometry, NZM mice (Example 3)
NZM mice [3] = experiment: Total urine protein (proteinuria), NZM mice (Example 3); format: in vivo, mouse; settings: Groups 1, 2, 4, and 5
Experimental: FIG. 45 depicts total urine protein (proteinuria) in NZM mice. Urine collected from NZM mice was analyzed for total protein content using a rat urinalysis kit.
Urine samples are acid precipitated for total protein analysis. For urine sample preparation, urine samples are centrifuged at 10,000 rpm for 3 minutes using a tabletop micro-centrifuge. 1-50 μL of urine supernatant is added in duplicate. PBS is added to adjust the volume to 50 μL total. For the turbidity assay: 25 μL of 0.1 N HCl is added into blank columns and 250 μL of 3% sulfosalicyclic acid into the test columns. The microplate is incubated for 10 minutes at RT and plates are read using an ELISA reader with single beam at 450 nm. A standard protein solution is prepared from normal mouse sera and is used as a standard for mouse urinary protein assay by turbidity. Standard preparation is as follows: 0, 5, 10, 15, 20, 30, 40, and 50 μL of a 4 mg/mL mouse sera standard protein solution as provided in the kit are added in duplicate into two columns. PBS is added to individual wells to adjust the final volume to 50 μL. Samples for which enough urine remains are used for Uristix® leukouria analysis. For the Uristix® strip assay, strips are laid out and labeled. Twenty microliters of urine are placed onto each test strip square and incubated for at least 30 seconds before the result is recorded. […]

MRL/lpr mice = experiment: Serum C3 complement ELISA, MRL/lpr mice; format: in vivo, mouse
Description: Mice are tracked on an individual basis.

NZM mice [4] = experiment: Serum IL-12 by Luminex, NZM mice (Example 3); format: in vivo, mouse
Experimental: FIG. 48 depicts serum IL-12 concentration in NZM mice. Mean±SEM values for the concentration of mouse serum IL-12 from treated NZM mice at the end of the study.
For the processing of serum samples for cytokine analysis, frozen plasma at −80° C. is thawed on ice, vortexed, and centrifuged for 10 minutes (10,000×g) to remove debris and aggregates. A total of 25-50 μL of serum is used for Luminex assays following the manufacturer's instructions. Ten different mouse cytokines are measured using the mouse cytokine 20-plex bead kit (Invitrogen, Carlsbad, Calif., no. LMC0006). Briefly, filter plates (Millipore, Billerica, Mass., no. MAIPSWU10), are pre-wet with 200 μL of wash solution (kit component) and 25 μL of beads are added per well. Serum samples are diluted and a total volume of 50 μL is added per well (ie, 25 μL of sample serum plus 25 μL of assay diluent as provided by the manufacturer). Plates with beads are incubated for 2 hours at room temperature (RT) on an orbital shaker in the dark. At the end of the incubation, plate(s) are washed twice in kit buffer, secondary biotinylated antibody is added at a 1:10 dilution (100 μL) in biotin diluent provided with the kit. Plates are incubated at RT for 1 hour in the dark then washed twice in kit buffer. Strepavidin in assay diluent is added at 100 μL per well, then incubated for 30 minutes at RT in the dark. The plates are washed 3 times then 100 μL of kit wash solution is added and agitated for 2-3 minutes at RT in the dark. Plates are run immediately following this incubation period on a Luminex xMAP 200 unit with data acquisition and analysis software (Invitrogen, San Diego, Calif., no. MAP0200). All bead washing is performed using a vacuum manifold unit (Pall, Ann Arbor, Mich. no. 5017). For all cytokine Luminex assays, values below the limit of detection set by the lowest point along the standard or set by the manufacturer are considered out of range and are not estimated, but assumed the lowest point along the standard curve for that particular assay.

With `CC(C)C[C@H](NC(=O)[C@@H](NC(=O)c1cccc(-c2ccccc2)n1)[C@@H](C)O)B(O)O` [COMPOUND A, [(1R)-1-[[(2S,3R)-3-hydroxy-2-[6-phenyl-pyridine-2-carbonyl)amino]-1-oxobutyl]amino]-3-methylbutylboronic acid] the “anti-sdDNA ASC decrease vs vehicle” value (NZM mice [1]; Group 1 (regimen: Table 42)) was 97.9%, the “anti-smith ASC decrease vs vehicle” value (NZM mice [1]; Group 1 (regimen: Table 42)) was 98.7% and the “anti-sdDNA ASC decrease vs vehicle” value (NZM mice [1]; Group 2 (regimen: Table 42)) was 96.4%. The “anti-smith ASC decrease vs vehicle” value (NZM mice [1]; Group 2 (regimen: Table 42)) was 96.6%, the “anti-sdDNA ASC decrease vs vehicle” value (NZM mice [1]; Group 4 (regimen: Table 42)) was 100.7% and the “anti-smith ASC decrease vs vehicle” value (NZM mice [1]; Group 4 (regimen: Table 42)) was 98.6%. For the same molecule, the “anti-sdDNA ASC decrease vs vehicle” value (NZM mice [1]; Group 5 (regimen: Table 42)) was 95.9%, the “anti-smith ASC decrease vs vehicle” value (NZM mice [1]; Group 5 (regimen: Table 42)) was 97.6% and the “spleen 20S proteasome inhibition relative to vehicle” value (20S proteasome; COMPOUND A groups) was roughly 40%. The “PD 20S proteasome activity, percent change vs vehicle” value (20S proteasome; G1 3 mg/kg ip, 1× wk) was −42%, the “PD 20S proteasome activity, percent change vs vehicle” value (20S proteasome; G2 3 mg/kg ip, 2× wk) was −41% and the “spleen CD138/CD38 double positive plasma B cells decrease vs vehicle” value (NZM mice [2]; Group 1 (regimen: Table 42)) was 56.6%. For the same molecule, the “spleen CD138/CD38 double positive plasma B cells decrease vs vehicle” value (NZM mice [2]; Group 2 (regimen: Table 42)) was 38.1%, the “spleen CD138/CD38 double positive plasma B cells decrease vs vehicle” value (NZM mice [2]; Group 4 (regimen: Table 42)) was 49.8% and the “spleen CD138/CD38 double positive plasma B cells decrease vs vehicle” value (NZM mice [2]; Group 5 (regimen: Table 42)) was 24.3%. The “spleen CD138/CD38 double positive plasma B cells decrease vs vehicle” value (NZM mice [2]; Group 6 (regimen: Table 42)) was 47.8%, the “proteinuria compared to vehicle (Group 10) and bortezomib ip (Group 7)” value (NZM mice [3]) was “reduced proteinuria” and the “serum C3 concentration increase over vehicle” value (MRL/lpr mice; treated orally, day 99) was 128%. For the same molecule, the “serum IL-12 decrease vs vehicle” value (NZM mice [4]; Group 1 (regimen: Table 42)) was 92.8%, the “serum IL-12 decrease vs vehicle” value (NZM mice [4]; Group 2 (regimen: Table 42)) was 76.6% and the “serum IL-12 decrease vs vehicle” value (NZM mice [4]; Group 4 (regimen: Table 42)) was 75.7%. The “serum IL-12 decrease vs vehicle” value (NZM mice [4]; Group 5 (regimen: Table 42)) was 70.8%.

`CC(C)C[C@H](NC(=O)[C@H](Cc1ccccc1)NC(=O)c1cnccn1)B(O)O` [bortezomib, reference compound] was tested, and the “anti-dsDNA ASC decrease vs vehicle” value (NZM mice [1]; Group 7, ip) was 64.7%, the “anti-smith ASC decrease vs vehicle” value (NZM mice [1]; Group 7, ip) was 46.3% and the “anti-dsDNA ASC decrease vs vehicle” value (NZM mice [1]; Group 8, sc) was 88.9%. For the same molecule, the “anti-smith ASC decrease vs vehicle” value (NZM mice [1]; Group 8, sc) was 82.4%, the “PD 20S proteasome activity, percent change vs vehicle” value (20S proteasome; G3 0.3 mg/kg ip, 1× wk) was −14% and the “PD 20S proteasome activity, percent change vs vehicle” value (20S proteasome; G4 0.3 mg/kg ip, 2× wk) was −27%. The “spleen CD138/CD38 double positive plasma B cells decrease vs vehicle” value (NZM mice [2]; Group 7, ip) was 35.4%, the “spleen CD138/CD38 double positive plasma B cells decrease vs vehicle” value (NZM mice [2]; Group 8, sc) was 57.8% and the “serum C3 relative to vehicle” value (MRL/lpr mice; bortezomib treatment groups) was “did not exhibit a significant increase in serum C3”. The “serum IL-12 decrease vs vehicle” value (NZM mice [4]; Group 7, ip) was 65.8% and the “serum IL-12 decrease vs vehicle” value (NZM mice [4]; Group 8, sc) was 75.6%.
